Data from article PMC4358770 (Journal of medicinal chemistry, 2010).

Key:
[1] = molecular target: T1, human NPP1 (Homo sapiens, UniProt P22413); experiment: NPP1 hydrolysis assay; format: in vitro ADME; details: 100 μM ATP (100% reference)
T1 sequence (P22413 1-925): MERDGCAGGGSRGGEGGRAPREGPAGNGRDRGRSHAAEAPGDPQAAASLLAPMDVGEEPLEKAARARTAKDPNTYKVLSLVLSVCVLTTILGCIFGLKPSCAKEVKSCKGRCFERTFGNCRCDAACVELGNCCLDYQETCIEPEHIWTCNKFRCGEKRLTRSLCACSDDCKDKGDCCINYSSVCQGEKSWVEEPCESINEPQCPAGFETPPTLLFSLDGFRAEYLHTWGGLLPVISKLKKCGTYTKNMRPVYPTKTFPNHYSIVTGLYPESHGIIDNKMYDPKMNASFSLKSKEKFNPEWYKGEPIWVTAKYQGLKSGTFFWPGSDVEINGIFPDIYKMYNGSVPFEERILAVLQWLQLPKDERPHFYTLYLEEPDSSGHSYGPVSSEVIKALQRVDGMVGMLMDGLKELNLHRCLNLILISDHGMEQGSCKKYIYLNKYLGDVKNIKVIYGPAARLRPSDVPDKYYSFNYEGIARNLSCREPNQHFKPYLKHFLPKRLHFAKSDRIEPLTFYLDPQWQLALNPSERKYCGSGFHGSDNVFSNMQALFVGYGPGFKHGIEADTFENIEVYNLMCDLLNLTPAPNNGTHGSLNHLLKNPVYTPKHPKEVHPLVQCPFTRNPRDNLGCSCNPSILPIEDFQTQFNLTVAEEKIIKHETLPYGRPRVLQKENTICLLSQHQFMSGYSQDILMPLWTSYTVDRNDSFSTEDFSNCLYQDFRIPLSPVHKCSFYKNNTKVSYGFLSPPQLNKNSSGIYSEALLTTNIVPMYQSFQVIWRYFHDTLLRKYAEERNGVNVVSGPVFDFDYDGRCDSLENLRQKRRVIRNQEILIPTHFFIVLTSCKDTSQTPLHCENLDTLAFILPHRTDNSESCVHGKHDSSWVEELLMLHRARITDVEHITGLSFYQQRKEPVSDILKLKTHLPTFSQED

[2] = pKa and ionization of the terminal phosphate/phosphonate; format: physicochemical; details: pH 7.4, terminal phosphate/phosphonate

## Nc1ncnc2c1ncn2[C@@H]1O[C@H](COP(=O)(O)OP(=O)(O)OP(=O)(O)O)[C@@H](O)[C@H]1O [ATP]
[1]
  hydrolysis rate by NPP1: 619 nmol nucl·min^−1·mg protein^−1
[2]
  fraction ionized at physiological pH: 91%
